Experimental data published in patent publication US8044186B2, “Heterologous production of capreomycin and generation of new capreomycin derivatives through metabolic engineering” (priority 2007, dated 2011).
≈ marks a conversion by molar mass, not a printed value.

What was measured:
[1] = system: E. coli DH5α/pBAD33-cmnU/pLJ102 (cmnU+, tlyA−); experiment: MIC in E. coli expressing cmnU; format: cell-based, Escherichia coli
Excerpt: (§1) Analysis of cmnU in E. coli. The gene cmnU was PCR amplified from pCMN-P4C8RF using the following primers: CmnU-NdeI (5′-[…]-3′) (SEQ ID NO:37) and CmnU-HindIII (5′-[…]-3′) (SEQ ID NO:38). The amplicon was cloned into pCR-BluntII-TOPO according to manufacturer's instructions (Invitrogen), resulting in pCR-BluntII-TOPO-cmnU. The NdeI/HindIII fragment of pCR-Blunt-TOPO-cmnU containing cmnU was subcloned into the corresponding restriction sites of pET22b (Novagen), resulting in pET22b-cmnU. The XbaI/HindIII fragment of pET22b-cmnU containing the optimized ribosome-binding site and cmnU was subcloned into the corresponding sites of pBAD33 (14) resulting in pBAD33-cmnU. This construct results in the expression of cmnU under the control of the arabinose promoter of pBAD33. pBAD33 and pBAD33-cmnU were transformed into DH5α strains containing either pLJ102 (empty vector) or pSJ101 (tlyA inserted into pLJ102 and expression controlled by IPTG induction) (18). Each of these strains was grown in LB medium containing chloramphenicol (15 μg/ml) and ampicillin (100 μg/ml) for plasmid maintenance, isopropyl-beta-D-thiogalactopyranoside (40 μg/ml) and arabinose (2% w/v) for induced expression of tlyA and cmnU, respectively, and varying concentrations of CMN (12.5-100 μg/ml) or kanamycin (6-96 μg/ml). […]

[2] = system: St. lividans 1326/pSE34-cmnU (cmnU+); experiment: MIC in St. lividans 1326 expressing cmnU; format: cell-based, Streptomyces lividans
Protocol: (§2) Analysis of cmnU in St. lividans 1326. The XbaI/HindIII fragment of pET22b-cmnU was cloned into the corresponding sites of pSE34 (29) to generate pSE34-cmnU. This vector construct results in the constitutive expression of cmnU when pSE34-cmnU is introduced into St. lividans 1326. pSE34-cmnU and pSE34 were introduced into St. lividans 1326 by transformation, and successful transformants were selected by using an overlay of thiostrepton (8 μg/ml). Transformants were streaked for isolation on ISP2 medium containing thiostrepton. To test for CMN or kanamycin resistance, 10^5 spores of St. lividans 1326 containing either pSE34-cmnU or pSE34 were plated onto ISP2 plates supplemented with CMN (25-1600 μg/ml) or kanamycin (3-1600 μg/ml). The plates were incubated at 30° C. for 2 days, and the minimum inhibitory concentration was defined as the lowest antibiotic concentration at which no growth was observed.

[3] = system: St. lividans 1326/pSE34 (cmnU−); experiment: MIC in St. lividans 1326 with empty vector; format: cell-based, Streptomyces lividans
Protocol: as §2

[4] = system: E. coli DH5α/pBAD33/pSJ101 (cmnU−, tlyA+); experiment: MIC in E. coli expressing tlyA; format: cell-based, Escherichia coli
Excerpt: as §1

[5] = system: E. coli DH5α/pBAD33/pLJ102 (cmnU−, tlyA−); experiment: MIC in E. coli, cmnU not expressed, tlyA not expressed; format: cell-based, Escherichia coli
Excerpt: as §1

[6] = system: E. coli DH5α/pBAD33-cmnU/pSJ101 (cmnU+, tlyA+); experiment: MIC in E. coli expressing cmnU and tlyA; format: cell-based, Escherichia coli
Excerpt: as §1

[7] = Escherichia coli, 16 h, read-out: minimum inhibitory concentration (MIC)
[8] = Streptomyces lividans, 48 h, read-out: minimum inhibitory concentration (MIC)

Molecule | minimum inhibitory concentration (MIC) ([1]; E. coli DH5α/pBAD33-cmnU/pLJ102 (cmnU+, tlyA−), lowest concentration with OD650 < 0.1 after 16 hrs at 37° C. in LB medium, three separate experiments) | minimum inhibitory concentration (MIC) ([2]; St. lividans 1326/pSE34-cmnU (cmnU+), lowest concentration with no growth on ISP2 plates after 2 days at 30° C., three separate experiments) | minimum inhibitory concentration (MIC) ([3]; St. lividans 1326/pSE34 (cmnU−), lowest concentration with no growth on ISP2 plates after 2 days at 30° C., three separate experiments) | minimum inhibitory concentration (MIC) ([4]; E. coli DH5α/pBAD33/pSJ101 (cmnU−, tlyA+), lowest concentration with OD650 < 0.1 after 16 hrs at 37° C. in LB medium, three separate experiments) | minimum inhibitory concentration (MIC) ([5]; E. coli DH5α/pBAD33/pLJ102 (cmnU−, tlyA−), lowest concentration with OD650 < 0.1 after 16 hrs at 37° C. in LB medium, three separate experiments) | minimum inhibitory concentration (MIC) ([6]; E. coli DH5α/pBAD33-cmnU/pSJ101 (cmnU+, tlyA+), lowest concentration with OD650 < 0.1 after 16 hrs at 37° C. in LB medium, three separate experiments) | MIC [1, 7] | MIC [2, 8] | MIC [3, 8] | MIC [4, 7] | MIC [5, 7] | MIC [6, 7]
capreomycin [CMN] | 100 µg/mL | >1600 µg/mL | 200 µg/mL | 25 µg/mL | 50 µg/mL | 50 µg/mL | – | – | – | – | – | –
NC[C@H]1O[C@H](O[C@H]2[C@H](O)[C@@H](O[C@H]3O[C@H](CO)[C@@H](O)[C@H](N)[C@H]3O)[C@H](N)C[C@@H]2N)[C@H](O)[C@@H](O)[C@@H]1O [Kanamycin, kanamycin] | – | – | – | – | – | – | 96 µg/mL (≈ 198 µM) | > 1600 µg/mL | 6 µg/mL (≈ 12.4 µM) | 12 µg/mL (≈ 24.8 µM) | 12 µg/mL (≈ 24.8 µM) | 24 µg/mL (≈ 49.5 µM)
